Values quoted from earlier work as cited in patent US20240082165A1, “METHODS AND COMPOSITIONS FOR PRECISION RELEASE OF PROBIOTICS TO IMPROVE HUMAN HEALTH” (SEED HEALTH INC., priority 2021, published 2024).

Key:
[1] = delivered directly in the colon, overweight individuals
[2] = synthesized ligand, mice

CCC(=O)O [propionate]
energy intake, adiposity, liver lipid, plasma PYY and GLP-1 [1]: reduced energy intake, adiposity, and lipid liver content, and increased plasma levels of peptide YY (PYY) and glucagon-like peptide 1 (GLP-1)

M-tri-Lys
protection from colitis [2]: protected mice from colitis in a NOD2-dependent but MyD88-independent manner
